According to patent publication US8969312B2, “Low side effect pharmaceutical composition containing antituberculosis drugs” (priority 2011, dated 2015):

What was measured:
129/sv mice [1] = experiment: Mouse study of INH/RIF/PZA with oral Mannitol (GSP); assay type: in vivo; details: in words
Procedure: Mice were anesthetized with ether at the dose of 50 mg/kg and galactose was retro-orbitally injected and blood samples were collected 60 min after injection through tail vein.
Animals were randomized into one of three groups, each involving four treatments. […] The second treatment involved injections of 50 mg/kg INH or INH vehicle (VEH1, normal saline). […] The third treatment involved injections of RIF (100 mg/kg) or RIF vehicle (VEH2, saline). […] The fourth treatment involved injections of PZA (250 mg/kg) or PZA vehicle (VEH3, saline).

CYP2E1 [2] = molecular target: T1, CYP2E1 (Homo sapiens, UniProt P05181); experiment: Human liver microsomal CYP2E1, chlorzoxazone 6-hydroxylation; details: human; for inhibition at 30 min, 0.167 % (w/v): microsomes, pH 7.4;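 on all read-outs here: chlorzoxazone added as substrate, 6-hydroxychlorzoxazone formation quantified by LC/MS/MS after 30 min at 37 °C with NADP+ regenerating system, compared against solvent control without test sample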
Procedure: (§1) Microsomes prepared from human liver were used to extract cytochrome P450 2E1 (CYP2E1) and CYP2E1 inhibitors were screened from 39 Chinese medicine guiding drugs and 10 excipients. Chlorzoxazone hydroxylation is a reaction catalyzed primarily by CYP2E1 in liver. The extracted human liver microsomal cytochrome P450 2E1 (CYP2E1) was mixed with its substrate, Chlorzoxazone, and test sample was then added Inhibition of CYP2E1 activity was calculated by measuring CYP2E1 standard metabolite, 6-OH-CZX (6-Hydroxy-Chlorzoxazone), and compared with control 6-OH-CZX.
(§2) After incubation, 16 mM Chlorzoxazone and test samples were added to experimental groups; methanol:sterilized water at 1:1 ratio was added to control groups and DDTC was added to positive control groups,
(§3) Finally, cofactor 1 mM NADP^+, 10 mM G6P and 2 IU G6PD were added and reaction mixtures were transferred to pre-incubation 37° C. water bath for 1 mM and activity was measured after 30 min of reaction
(§4) At the end of reaction, 500 μl acetonitrile was added to stop the reaction followed by 5 g/mL 4-hydroxy-tobutamide after 1 mM incubation. The mixture was then centrifuged and 20 L of supernatant was diluted ten times with methanol/sterilized water and 5 L was used for LC/MS/MS analysis. […] The inhibition of CYP2E1 was then calculated by the following equation:

[3] = molecular target: T2, human liver microsomal cytochrome P450 2E1 (CYP2E1) (Homo sapiens, UniProt P05181); experiment: as above
Procedure: as §1, §2, §3, §4

amidase = experiment: Mouse liver microsomal amidase, isoniazid to isonicotinic acid; assay type: biochemical
129/sv mice [4] = experiment: Mouse study of INH/RIF with oral Kaempferol, Mannitol, Saccharin, Sucralose, Dicalcium phosphate or Crospovidone; assay type: in vivo; details: 3 weeks, in words
Excerpt: Animals were randomized into one of thirteen groups, each involving three treatments. […].
All mice were subjected to GSP test.

[5] = molecular target: T2, human liver microsomal cytochrome P450 2E1 (CYP2E1)
Procedure: as §1, §2, §3, §4

129/sv mice [6] = experiment: Mouse study of INH/RIF(/PZA) with i.p. Kaempferol or Quercetin
Excerpt: Animals were randomized into one of seven groups, each involving five treatments.
All mice were subjected to GSP tests.

[7] = molecular target: cytochrome P450 2E1 (CYP2E1) (Homo sapiens, UniProt P05181); experiment: CYP2E1 High Throughput Inhibitor Screening Kit, cDNA synthesized microsomal CYP2E1 (MFC to HFC); details: Table 3; minimum tested concentration (mg/L) × volume of human liver and intestine (3L)
Excerpt: CYP2E1 High Throughput Inhibitor Screening Kit (BD Bioscience, USA) was used to screen the cytochrome P450 (CYP2E1) inhibitors from 22 Chinese medicine guiding drugs and 10 excipients and microsomal cytochrome P450 (CYP2E1) was synthesized from cDNA (BD Bioscience, USA). The principle of the screening kit is to measure the percentage of CYP2E inhibition, after adding the test sample to substrate MFC (7-Methoxy-4-trifluoromethyl coumarin) and cytochrome P450 (CYP2E1), by measuring the synthesis of standard CYP2E1 metabolite (HFC, 7-Hydroxy-4-trifluoromethyl coumarin) and use control HFC as baseline.
a. 149 μl NADPH-Cofactor Mix and 1 μl 20 mM DDTC were added to the #1 well in a 96-well plate and mixed thoroughly,
b. Add 100 μl Cofactor/acetonitrile mix to #2 to #12 wells, and well #1 to #8 are positive control. Well #9 and 10 are control and well #11 and #12 are blank,
c. […] Preparation of Experimental Groups: a. […] Transfer 50 μl from well #1 and #2 and added to well #3 and mixed thoroughly (triplicate for each sample), 3. Initiation and Termination of the Reaction: a. The 96-well plate was incubated at 37° C. for […], b. 100 μl of Enzyme/Substrate Mix was added to every well and mixed thoroughly except the blank wells, c. The 96-well plate was incubated at 37° C. for 40 min, d. 75 μl Stop Solution was added to every well and mixed thoroughly, e. Immediately add 100 μl Enzyme/Substrate Mix to blank wells and mixed thoroughly, f. Measure with a Fluoroskan Ascent FL (Thermo Electron Corporation, Finland) with excitation at 405 nm and emission at 538 nm, 4. The fluorescence was transverse into CYP 2E1 metabolite standard (HFC) concentration (pmol) and the percentage (%) of CYP 2E1 inhibition was calculated using control as baseline by following equation: […]

CYP2E1 [8] = molecular target: T1, CYP2E1; experiment: in vitro; details: human liver microsomes, pH 7.4, probe chlorzoxazone (6-hydroxylation)
Procedure: as §1, §2, §3, §4

[9] = human liver microsomes, pH 7.4, probe Chlorzoxazone
[10] = daily i.p. 3 weeks, INH/RIF 50/100 mg/kg, Kaempferol 3.78 mg/kg

T1 sequence (P05181 whole entry): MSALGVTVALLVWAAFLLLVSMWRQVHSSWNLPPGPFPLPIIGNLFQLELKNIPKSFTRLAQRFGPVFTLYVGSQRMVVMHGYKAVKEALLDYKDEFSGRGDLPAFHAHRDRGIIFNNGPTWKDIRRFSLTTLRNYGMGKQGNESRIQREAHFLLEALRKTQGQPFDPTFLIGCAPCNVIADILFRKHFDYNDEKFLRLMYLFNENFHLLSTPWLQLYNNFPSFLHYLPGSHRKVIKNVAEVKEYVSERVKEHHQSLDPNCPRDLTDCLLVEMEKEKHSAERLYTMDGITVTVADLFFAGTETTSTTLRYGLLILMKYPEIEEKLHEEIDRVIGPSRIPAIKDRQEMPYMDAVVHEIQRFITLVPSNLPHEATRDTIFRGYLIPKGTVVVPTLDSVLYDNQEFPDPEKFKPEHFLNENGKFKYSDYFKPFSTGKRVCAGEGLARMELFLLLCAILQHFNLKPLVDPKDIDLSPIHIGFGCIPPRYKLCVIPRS
T2 sequence (P05181 whole entry): as above
Sequence of cytochrome P450 2E1 (CYP2E1) (P05181 whole entry): as above

OC[C@@H](O)[C@@H](O)[C@H](O)[C@H](O)CO [Mannitol]
GSP values over treatment time (129/sv mice [1]): reamined constant | inhibition at 30 min, 16.5 µM (CYP2E1 [2]; [9]): 44.8 ± 1.8% | inhibition at 30 min, 33 µM (CYP2E1 [2]; [9]): 51.2 ± 2.1% | inhibition at 30 min, 66 µM (CYP2E1 [2]; [9]): 54.5 ± 4.2% | Minimum Effective Dose ([3]; Table 7): 10 mg | Amidase inhibition (amidase; 0.0005%): 58.3 ± 4.3% | Amidase inhibition (amidase; 0.005%): 52.8 ± 7.6% | Amidase inhibition (amidase; 0.05%): 1.9 ± 6.0% | GSP values over treatment time (129/sv mice [4]): remained constant

Sodium starch glycolate
inhibition [5]: 34.7 ± 1.3%

O=c1c(O)c(-c2ccc(O)cc2)oc2cc(O)cc(O)c12 [Kaempferol]
Minimum Effective Dose ([3]; Table 6, minimum tested concentration (mg/L) × volume of human liver and intestine (3 L)): 16 mg | liver function tests (129/sv mice [6]; Kaempferol 1.89 mg/kg with INH/RIF, in words): no obvious reduction | GOT (129/sv mice [6]; [10]): 89±19 U/L | GPT (129/sv mice [6]; [10]): 48±21 U/L | GSP values over treatment time (129/sv mice [4]): remained constant | Minimum Effective Dose [7]: 16 mg

CCCCCCCCCCCCCCCCCC(=O)OCC(O)CO (centres unmarked) [Glycerrin monostearate]
Inhibition of CYP 2E1 ([3]; 0.08% (w/v)): 7.4 ± 2.9% | Inhibition of CYP 2E1 ([3]; 0.167% (w/v)): 6.9 ± 3.8% | inhibition [5]: 5.8 ± 1.7%

Tween 80
inhibition [5]: 23.1 ± 3%

OCc1ccccc1 [Benzyl alcohol]
inhibition at 30 min, 0.08 % (w/v) (CYP2E1 [2]; [9]): 6.7 ± 1% | inhibition at 30 min, 0.167 % (w/v) (CYP2E1 [2]): -10.3 ± 6.3% | inhibition at 30 min, […] (CYP2E1 [8]): 7.7 ± 2.6%

OC[C@@H](O)[C@@H](O)[C@H](O)[C@@H](O)CO [Sorbitol]
inhibition at 30 min, 0.08 % (w/v) (CYP2E1 [2]; [9]): 5.6 ± 0.5% | inhibition at 30 min, 0.167 % (w/v) (CYP2E1 [2]): 16.1 ± 0.7% | inhibition at 30 min, […] (CYP2E1 [8]): 4.4 ± 1.7%
